Test results from patent US20240067702A1, “LACTAM-MODIFIED P[…]” (DONGBAO PURPLE STAR (HANGZHOU) BIOPHARMACEUTICAL CO., LTD., priority 2020, published 2024).
Like-named read-outs stand apart in the source and are kept apart here. *1 amine or outer side, *2 acyl side, *3 side chain or, on linkers, in order; H or OH if unused. Where a SMILES comes first, the peptide text is derived from it. Bridges are numbered along the chain shown (N, C = ends). Side-chain parts run from the residue outwards. [ ]: non-standard residue; d: D form. The star is where a group is joined. C20 diacid = O=C(O)CCCCCCCCCCCCCCCCCCC(=O)*; γGlu = O=C(O)[C@H](CCC(=O)[*:2])N[*:1]; AEEA = NCCOCCOCC(=O)O; Aib = CC(C)(N)C(=O)O

Key:
GIPR = target: T1, GIPR (Homo sapiens, UniProt P48546); experiment: GIPR agonist activity test in vitro (cAMP assay); type: cell-based; conditions: CHO host cell
T1 construct: host or cells: CHO
T1 sequence (P48546 22-466): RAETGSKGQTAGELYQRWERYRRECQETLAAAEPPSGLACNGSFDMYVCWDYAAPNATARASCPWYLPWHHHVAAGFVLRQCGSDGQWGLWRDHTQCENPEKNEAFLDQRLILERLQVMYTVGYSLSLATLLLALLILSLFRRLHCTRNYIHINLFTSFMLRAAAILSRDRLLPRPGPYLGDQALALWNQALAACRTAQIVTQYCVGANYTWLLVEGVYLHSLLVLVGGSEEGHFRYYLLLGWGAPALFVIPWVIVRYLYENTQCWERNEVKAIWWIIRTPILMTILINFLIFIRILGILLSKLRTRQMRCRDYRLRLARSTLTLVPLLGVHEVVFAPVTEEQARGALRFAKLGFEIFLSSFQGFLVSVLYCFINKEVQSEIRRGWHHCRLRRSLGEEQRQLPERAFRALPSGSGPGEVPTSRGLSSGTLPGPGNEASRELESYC
Method: The cell strains were constructed by Shanghai WuXi AppTec.
The test compound was serially diluted 4-fold with 10 points. The initial concentration was 30 μM, and the dilution was completed with Bravo.
1) 100 nL of the compound was transferred to OptiPlate-384 plate using Echo.
7) The GLP-1R/GIPR cell concentration was diluted to 2.0*10^5/mL with the experimental buffer.
8) […] of the diluted cell suspension was transferred into the OptiPlate-384 plate.
9) The diluted cell suspension was incubated at room temperature for 30 minutes.
2) 10 μL of cAMP detection reagent was added.
3) The OptiPlate-384 plate was covered with TopSeal-A film and incubated at room temperature for 60 minutes.
TopSeal-A was removed and read in EnVision.

[1] = Plasma protein binding (PPB) test, mouse; type: in vitro ADME
Method: To study the binding of the test compounds to human/mouse plasma albumin.
1. Matrix preparation: On the day of the experiment, the plasma was thawed in cold water and centrifuged at 3220 rpm for 5 min to remove all blood clots. The pH of the obtained plasma was measured and adjusted to 7.4±0.1 using 1% phosphoric acid or 1N sodium hydroxide as needed.
2. Dilution steps of the test compounds: The test compounds were dissolved in dimethyl sulfoxide (DMSO) to prepare stock solutions at concentrations of 10 mM and 2 mM, respectively. A 40 μM working solution was prepared by diluting 2 μL of the stock solution (2 mM) with 98 μL of DMSO. A 400 μM working solution of the control compound was prepared by diluting 10 μL of the stock solution with 240 μL of DMSO. The working solution of the compound (5 μL) was mixed with the blank matrix (995 μL) at a ratio of 1:200 to prepare the loading matrix.
3.1 An equal amount of 30 μL of the loading matrix (n=2) was transferred to the sample collection plate to prepare samples of time 0 (TO) for residue determination. The samples were immediately matched to the corresponding blank buffer in a final volume of 60 μL with a 1:1 volume ratio of plasma to buffer in each well. Then, 60 μL of 4% H3PO4 in H2O and 480 μL of stop solution containing an internal standard were then added to the TO samples of the test compounds. They were then stored at 2-8° C. with other samples pending for further processing.
3.2 The remaining plasma samples were pre-incubated in a carbon dioxide incubator at 37±1° C. for 30 min. The prepared protein-free samples (F samples) and loading matrix samples (230 μL) were transferred to polycarbonate tubes (n=2) and ultracentrifuged at 37° C. and 155000×g (35000 rpm) for 4 hours.
3.3 To prepare T samples (test samples), an additional matrix-containing sample was transferred to a separate 96-well plate (sample incubation plate) and incubated at 37° C. for 4 hours.
3.4 After centrifugation, 30 μL of protein-free sample and 30 μL of T sample were transferred from the second layer of supernatant (below the upper layer) to a new sample collection plate. Each sample was mixed with the corresponding blank buffer or matrix in a final volume of 60 μL with a matrix:buffer volume ratio of 1:1. 60 μL of 4% H3PO4 aqueous solution and 480 μL of stop solution (containing internal standard) were added to all samples. The mixture was centrifuged at 4000 rpm for 20 min, and 100 μL of the supernatant of each sample was taken for LC-MS/MS analysis.

[2] = Pharmacokinetic evaluation in SD rats; type: in vivo; conditions: rat, 0.048 mg/kg, single SC 0.048 mpk; for half-life: read-out: Half-life T1/2 (converted); for Cmax: read-out: Maximum Plasma Concentration; for AUC(0-t): read-out: SC Concentration Integral AUC0-72 h
Method: To test the pharmacokinetics of compounds in SD rats in vivo
The pharmacokinetic characteristics of the compounds in rodents after subcutaneous injection were tested according to the standard protocol. In the experiment, the candidate compounds were formulated into clear solutions, and a single subcutaneous injection (SC, 0.048 mpk) was given to the rats. The injection vehicle was citrate buffer (20 mM, pH=7). Whole blood was collected and prepared to obtain plasma. Drug concentration was analyzed by LC-MS/MS method, and pharmacokinetic parameters were calculated by Phoenix WinNonlin software.

[3] = Plasma stability (PLS) test, mouse plasma; type: in vitro ADME; conditions: up to 120 min, read-out: PLS (H/M) T1/2; for half-life at 2 μM: pH 7.4, 37° C.
Method: To study the stability of test compounds in the plasma of normal mice.
1. Before the experiment, the coagulated frozen plasma was thawed in a water bath at 37° C. Plasma was centrifuged at 4000 rpm for 5 min. If there was blood clot, the blood clot was removed and the pH value was adjusted to 7.4±0.1.
2. Preparation of the test compound solution: 100 μM of the solution was prepared by dilution with DMSO.
3. 98 μL of blank control plasma was added to 2 μL of the test compound solution (100 μM), so that the final concentration of the mixed solution of the two reached 2 μM, and the mixed solution was placed in a 37° C. water bath for incubation.
4. At each time point (0, 10, 30, 60, and 120 min), 1(X) μL of H3PO4 solution and 800 μL of stop solution (200 ng/mL of tolbutamide and 200 ng/mL of labetalol in 100% methanol solution) were added to precipitate protein, and mixed thoroughly.
5. The samples were centrifuged at 4000 rpm for 20 min, and 1(X) μL of supernatant was taken from each well for LC-MS/MS analysis.

[4] = Plasma stability (PLS) test, human plasma; type: in vitro ADME; conditions: up to 120 min, read-out: PLS (H/M) T1/2, H; for half-life at 2 μM: pH 7.4, 37° C.
[5] = GIPR Agonist Activity EC50 (−) 1% HSA, without 1% HSA

| SMILES | EC50 (GIPR; [5]) | fraction unbound at 4 h, 0.2 μM ([1]; pH 7.4, ultracentrifugation) | half-life ([2]; plasma) | Cmax ([2]; plasma) | AUC(0-t) ([2]; plasma) | half-life at 2 μM [3] | half-life at 2 μM [4] | fraction unbound ([1]; ultracentrifugation, read-out: PPB % unbound (H/M)) | half-life ([2]; in vivo) | AUC(0-t) ([2]; in vivo) | half-life ([3]; 2 μM, 37° C.) | half-life ([4]; 2 μM, 37° C.) | EC50 (GIPR; GIPR Agonist Activity EC50 (+) 1% HSA, with 1% HSA) |
| --- | --- | --- | --- | --- | --- | --- | --- | --- | --- | --- | --- | --- | --- |
| CC[C@H](C)[C@H](NC(=O)[C@H](CC(C)C)NC(=O)[C@H](Cc1c[nH]c2ccccc12)NC(=O)[C@@H]1CCC(=O)NCCCC[C@H](NC(=O)[C@H](CCC(N)=O)NC(=O)[C@H](C)NC(=O)[C@H](CCCCNC(=O)COCCOCCNC(=O)COCCOCCNC(=O)CC[C@H](NC(=O)CCCCCCCCCCCCCCCCCCC(=O)O)C(=O)O)NC(=O)[C@H](CCCCN)NC(=O)[C@H](CC(=O)O)NC(=O)[C@H](CC(C)C)NC(=O)C(C)(C)NC(=O)[C@@H](NC(=O)[C@H](CO)NC(=O)[C@H](Cc2ccc(O)cc2)NC(=O)[C@H](CC(=O)O)NC(=O)[C@H](CO)NC(=O)[C@@H](NC(=O)[C@H](Cc2ccccc2)NC(=O)[C@@H](NC(=O)CNC(=O)[C@H](CCC(=O)O)NC(=O)C(C)(C)NC(=O)[C@@H](N)Cc2ccc(O)cc2)[C@@H](C)O)[C@@H](C)O)[C@@H](C)CC)C(=O)N[C@@H](CCC(=O)O)C(=O)N[C@@H](Cc2ccccc2)C(=O)N[C@@H](C(C)C)C(=O)N1)C(=O)N[C@@H](C)C(=O)NCC(=O)NCC(=O)N1CCC[C@H]1C(=O)N[C@@H](CO)C(=O)N[C@@H](CO)C(=O)NCC(=O)N[C@@H](C)C(=O)N1CCC[C@H]1C(=O)N1CCC[C@H]1C(=O)N1CCC[C@H]1C(=O)N[C@@H](CO)C(N)=O [WX-005] (H-Y[Aib]EGTFTSDYSI[Aib]LDKK([AEEA-AEEA-γGlu-C20 diacid])AQKEFVEWLIAGGPSSGAPPPS-NH2; lactam 20-24) | 0.22 nM | 0.0022 | 17 h | 0.014 µM | 1330 nM·h | > 4.82 h | > 4.82 h | – | – | – | – | – | – |
| CC[C@H](C)[C@H](NC(=O)[C@H](CC(C)C)NC(=O)[C@H](Cc1c[nH]c2ccccc12)NC(=O)[C@@H]1CCC(=O)NCCCC[C@H](NC(=O)[C@H](CCC(N)=O)NC(=O)[C@H](C)NC(=O)[C@H](CCCCNC(=O)COCCOCCNC(=O)COCCOCCNC(=O)CC[C@H](NC(=O)CC[C@H](NC(=O)CCCCCCCCCCCCCCCCCCC(=O)O)C(=O)O)C(=O)O)NC(=O)[C@H](CCCCN)NC(=O)[C@H](CC(=O)O)NC(=O)[C@H](CC(C)C)NC(=O)C(C)(C)NC(=O)[C@@H](NC(=O)[C@H](CO)NC(=O)[C@H](Cc2ccc(O)cc2)NC(=O)[C@H](CC(=O)O)NC(=O)[C@H](CO)NC(=O)[C@@H](NC(=O)[C@H](Cc2ccccc2)NC(=O)[C@@H](NC(=O)CNC(=O)[C@H](CCC(=O)O)NC(=O)C(C)(C)NC(=O)[C@@H](N)Cc2ccc(O)cc2)[C@@H](C)O)[C@@H](C)O)[C@@H](C)CC)C(=O)N[C@@H](C)C(=O)N[C@@H](Cc2ccccc2)C(=O)N[C@@H](C(C)C)C(=O)N1)C(=O)N[C@@H](C)C(=O)NCC(=O)NCC(=O)N1CCC[C@H]1C(=O)N[C@@H](CO)C(=O)N[C@@H](CO)C(=O)NCC(=O)N[C@@H](C)C(=O)N1CCC[C@H]1C(=O)N1CCC[C@H]1C(=O)N1CCC[C@H]1C(=O)N[C@@H](CO)C(N)=O [WX-002] (H-Y[Aib]EGTFTSDYSI[Aib]LDKK([AEEA-AEEA-γGlu-γGlu-C20 diacid])AQKAFVEWLIAGGPSSGAPPPS-NH2; lactam 20-24) | 0.29 nM | – | – | 0.014 µM | – | – | – | 0.0021 | 17 h | 1320 nM·h | > 4.82 h | > 4.82 h | – |
| CC[C@H](C)[C@H](NC(=O)[C@H](CC(C)C)NC(=O)[C@H](Cc1c[nH]c2ccccc12)NC(=O)[C@@H]1CCC(=O)NCCCC[C@H](NC(=O)[C@H](CCC(N)=O)NC(=O)[C@H](C)NC(=O)[C@H](CCCCNC(=O)COCCOCCNC(=O)COCCOCCNC(=O)CC[C@H](NC(=O)CCCCCCCCCCCCCCCCCCC(=O)O)C(=O)O)NC(=O)[C@H](CCCCN)NC(=O)[C@H](CC(=O)O)NC(=O)[C@H](CC(C)C)NC(=O)C(C)(C)NC(=O)[C@@H](NC(=O)[C@H](CO)NC(=O)[C@H](Cc2ccc(O)cc2)NC(=O)[C@H](CC(=O)O)NC(=O)[C@H](CO)NC(=O)[C@@H](NC(=O)[C@H](Cc2ccccc2)NC(=O)[C@@H](NC(=O)CNC(=O)[C@H](CCC(=O)O)NC(=O)C(C)(C)NC(=O)[C@@H](N)Cc2ccc(O)cc2)[C@@H](C)O)[C@@H](C)O)[C@@H](C)CC)C(=O)N[C@@H](C)C(=O)N[C@@H](Cc2ccccc2)C(=O)N[C@@H](C(C)C)C(=O)N1)C(=O)N[C@@H](C)C(=O)NCC(=O)NCC(=O)N1CCC[C@H]1C(=O)N[C@@H](CO)C(=O)N[C@@H](CO)C(=O)NCC(=O)N[C@@H](C)C(=O)N1CCC[C@H]1C(=O)N1CCC[C@H]1C(=O)N1CCC[C@H]1C(=O)N[C@@H](CO)C(N)=O [WX-001] (H-Y[Aib]EGTFTSDYSI[Aib]LDKK([AEEA-AEEA-γGlu-C20 diacid])AQKAFVEWLIAGGPSSGAPPPS-NH2; lactam 20-24) | 0.44 nM | – | 12 h | 0.022 µM | 728 nM·h | > 4.82 h | > 4.82 h | – | – | – | – | – | 23 nM |
